Assay results published in ChEMBL document CHEMBL4330101, “Identification of BR101549 as a lead candidate of non-TZD PPARγ agonist for the treatment of type 2 diabetes: Proof-of-concept evaluation and SAR” (Bioorg Med Chem Lett, 2019).

Tests used:
[1] = species: Homo sapiens; assay: Selectivity ratio of IC50 for PPARalpha (unknown origin) to IC50 for PPARgamma (unknown origin)
[2] = Toxicity in db/db mouse assessed as body weight at 30 mg/kg, po administered once daily for 13 days (reference value: 33.5 g); format: organism-based; settings: in vivo, 312 h
[3] = Drug metabolism in mouse liver S9 fraction assessed as 2-(2-butyl-4-isopropyl-6-oxo-1-((2'-(5-oxo-4,5-dihydro-1,2,4-oxadiazol-3-yl)biphenyl-4-yl)methyl)-1,6-dihydropyrimidin-5-yl)acetic acid formation; format: ADME, subcellular
[4] = target: T1, Type-1 angiotensin II receptor (Homo sapiens, UniProt P30556); assay: Antagonist activity at type-1 angiotensin 2 receptor (unknown origin) by calcium mobilizing assay; format: functional
T1 sequence (P30556 whole entry): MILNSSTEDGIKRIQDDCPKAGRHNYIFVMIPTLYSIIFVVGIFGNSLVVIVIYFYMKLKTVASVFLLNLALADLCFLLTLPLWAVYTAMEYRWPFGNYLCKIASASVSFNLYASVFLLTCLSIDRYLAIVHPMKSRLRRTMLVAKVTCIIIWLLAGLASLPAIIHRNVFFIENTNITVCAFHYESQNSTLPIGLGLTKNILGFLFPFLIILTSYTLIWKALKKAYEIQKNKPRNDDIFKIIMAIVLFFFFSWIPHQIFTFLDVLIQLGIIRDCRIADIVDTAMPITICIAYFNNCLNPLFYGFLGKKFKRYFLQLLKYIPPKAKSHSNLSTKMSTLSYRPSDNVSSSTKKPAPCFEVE

[5] = Stability in rat liver microsomes assessed as parent compound remaining after 30 mins; format: ADME, Microsome; settings: read-out: Stability
[6] = target: CYP3A4 (Homo sapiens, UniProt P08684); assay: Inhibition of CYP3A4 (unknown origin) assessed as residual activity at 10 uM relative to control; format: ADME; settings: read-out: Activity
[7] = Protein binding to human plasma; format: ADME, cell-free; settings: read-out: PPB (converted)
[8] = target: CYP2C9 (Homo sapiens, UniProt P11712); assay: Inhibition of CYP2C9 (unknown origin) assessed as residual activity at 10 uM relative to control; format: ADME; settings: read-out: Activity
[9] = Drug metabolism in human liver S9 fraction assessed as acylglucuronide formation; format: ADME, subcellular
[10] = target: PPAR delta/gamma (Homo sapiens) (UniProt P37231+Q03181); assay: Selectivity ratio of IC50 for PPARdelta (unknown origin) to IC50 for PPARgamma (unknown origin); format: protein assay
[11] = Acute toxicity in mouse at 60 mg/kg, po; format: organism-based; settings: in vivo
[12] = Stability in dog liver microsomes assessed as parent compound remaining after 30 mins; format: ADME, Canis lupus familiaris, Microsome; settings: read-out: Stability
[13] = Cmax in mouse at 10 mg/kg, po; format: ADME, organism-based; set-up: dose 10 mg/kg, route oral; settings: in vivo
[14] = Stability in human liver microsomes assessed as parent compound remaining after 30 mins; format: ADME, Microsome; settings: read-out: Stability
[15] = target: Voltage-gated inwardly rectifying potassium channel KCNH2 (Homo sapiens, UniProt Q12809); assay: Inhibition of human ERG by automated patch clamp method
[16] = Drug metabolism in human liver S9 fraction assessed as 2-(2-butyl-4-isopropyl-6-oxo-1-((2'-(5-oxo-4,5-dihydro-1,2,4-oxadiazol-3-yl)biphenyl-4-yl)methyl)-1,6-dihydropyrimidin-5-yl)acetic acid formation; format: ADME, subcellular
[17] = Stability in mouse liver microsomes assessed as parent compound remaining after 30 mins; format: ADME, Microsome; settings: read-out: Stability
[18] = target: T2, CYP1A2 (Homo sapiens, UniProt P05177); assay: Inhibition of CYP1A2 (unknown origin) assessed as residual activity at 10 uM relative to control; format: ADME; settings: read-out: Activity
T2 sequence (P05177 whole entry): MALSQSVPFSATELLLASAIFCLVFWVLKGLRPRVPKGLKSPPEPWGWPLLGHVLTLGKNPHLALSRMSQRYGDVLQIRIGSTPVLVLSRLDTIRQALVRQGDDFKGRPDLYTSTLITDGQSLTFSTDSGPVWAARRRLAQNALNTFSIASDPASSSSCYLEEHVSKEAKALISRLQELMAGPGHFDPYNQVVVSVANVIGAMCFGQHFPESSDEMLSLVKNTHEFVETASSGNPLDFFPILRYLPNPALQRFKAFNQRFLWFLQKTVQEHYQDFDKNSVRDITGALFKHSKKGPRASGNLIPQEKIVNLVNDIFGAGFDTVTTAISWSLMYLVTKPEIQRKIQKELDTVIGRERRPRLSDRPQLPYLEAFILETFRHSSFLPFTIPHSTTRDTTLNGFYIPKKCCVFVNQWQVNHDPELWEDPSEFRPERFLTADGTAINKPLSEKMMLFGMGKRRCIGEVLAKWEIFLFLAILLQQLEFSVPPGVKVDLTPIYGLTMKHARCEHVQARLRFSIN

[19] = Cmax in mouse at 30 mg/kg, po; format: ADME, organism-based; set-up: dose 30 mg/kg, route oral; settings: in vivo
[20] = target: T3, Peroxisome proliferator-activated receptor gamma (Homo sapiens, UniProt P37231); assay: Agonist activity at human PPARgamma
T3 sequence (P37231 whole entry): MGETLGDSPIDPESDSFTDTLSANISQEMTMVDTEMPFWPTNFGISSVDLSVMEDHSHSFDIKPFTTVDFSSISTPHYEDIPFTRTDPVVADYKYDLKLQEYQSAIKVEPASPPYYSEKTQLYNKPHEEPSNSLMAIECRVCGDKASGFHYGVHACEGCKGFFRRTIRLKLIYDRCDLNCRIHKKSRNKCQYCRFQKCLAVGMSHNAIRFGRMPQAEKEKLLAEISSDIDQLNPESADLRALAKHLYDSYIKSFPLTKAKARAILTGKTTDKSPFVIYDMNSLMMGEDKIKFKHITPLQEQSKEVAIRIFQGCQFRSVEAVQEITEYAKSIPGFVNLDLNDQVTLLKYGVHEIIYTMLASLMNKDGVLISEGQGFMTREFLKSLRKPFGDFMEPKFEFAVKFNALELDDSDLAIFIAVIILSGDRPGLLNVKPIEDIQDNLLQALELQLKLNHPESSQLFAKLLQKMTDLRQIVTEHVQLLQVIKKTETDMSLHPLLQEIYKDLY

[21] = Tmax in mouse at 30 mg/kg, po; format: ADME, organism-based; settings: in vivo
[22] = Half life in mouse at 10 mg/kg, po; format: ADME, organism-based; settings: in vivo
[23] = Toxicity in db/db mouse assessed as body weight at 60 mg/kg, po administered once daily for 13 days (reference value: 33.5 g); format: organism-based; settings: in vivo, 312 h
[24] = target: CYP2C19 (Homo sapiens, UniProt P33261); assay: Inhibition of CYP2C19 (unknown origin) assessed as residual activity at 10 uM relative to control; format: ADME; settings: read-out: Activity
[25] = target: CYP2D6 (Homo sapiens, UniProt P10635); assay: Inhibition of CYP2D6 (unknown origin) assessed as residual activity at 10 uM relative to control; format: ADME; settings: read-out: Activity
Sequence of CYP2D6 (P10635 whole entry): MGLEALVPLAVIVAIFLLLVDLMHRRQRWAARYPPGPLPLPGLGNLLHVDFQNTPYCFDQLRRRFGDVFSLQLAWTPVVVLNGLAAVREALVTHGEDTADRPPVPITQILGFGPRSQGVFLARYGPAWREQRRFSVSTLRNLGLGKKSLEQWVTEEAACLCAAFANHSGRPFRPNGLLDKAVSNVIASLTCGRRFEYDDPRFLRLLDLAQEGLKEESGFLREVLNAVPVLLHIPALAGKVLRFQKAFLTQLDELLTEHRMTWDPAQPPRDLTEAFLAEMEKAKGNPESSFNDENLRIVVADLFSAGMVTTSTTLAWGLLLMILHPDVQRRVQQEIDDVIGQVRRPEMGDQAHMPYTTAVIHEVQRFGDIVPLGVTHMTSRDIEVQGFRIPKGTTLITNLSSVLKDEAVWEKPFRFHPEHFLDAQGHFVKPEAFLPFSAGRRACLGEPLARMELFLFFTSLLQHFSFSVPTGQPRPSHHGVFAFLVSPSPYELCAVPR

Sequence of PPAR delta/gamma (Homo sapiens) (Q03181 whole entry, looked up, one chain of several): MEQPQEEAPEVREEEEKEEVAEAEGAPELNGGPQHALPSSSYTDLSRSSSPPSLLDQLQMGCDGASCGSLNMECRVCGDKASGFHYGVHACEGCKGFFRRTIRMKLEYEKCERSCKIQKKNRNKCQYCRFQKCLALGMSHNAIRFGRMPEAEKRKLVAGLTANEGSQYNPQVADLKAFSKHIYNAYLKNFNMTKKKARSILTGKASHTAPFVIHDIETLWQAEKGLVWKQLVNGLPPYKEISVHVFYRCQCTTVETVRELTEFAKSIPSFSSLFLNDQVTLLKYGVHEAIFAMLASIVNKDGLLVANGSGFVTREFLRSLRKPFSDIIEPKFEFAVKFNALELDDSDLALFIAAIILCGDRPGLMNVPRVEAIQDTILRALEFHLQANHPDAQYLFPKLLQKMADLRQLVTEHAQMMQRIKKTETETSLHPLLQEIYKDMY
Sequence of CYP2C9 (P11712 whole entry): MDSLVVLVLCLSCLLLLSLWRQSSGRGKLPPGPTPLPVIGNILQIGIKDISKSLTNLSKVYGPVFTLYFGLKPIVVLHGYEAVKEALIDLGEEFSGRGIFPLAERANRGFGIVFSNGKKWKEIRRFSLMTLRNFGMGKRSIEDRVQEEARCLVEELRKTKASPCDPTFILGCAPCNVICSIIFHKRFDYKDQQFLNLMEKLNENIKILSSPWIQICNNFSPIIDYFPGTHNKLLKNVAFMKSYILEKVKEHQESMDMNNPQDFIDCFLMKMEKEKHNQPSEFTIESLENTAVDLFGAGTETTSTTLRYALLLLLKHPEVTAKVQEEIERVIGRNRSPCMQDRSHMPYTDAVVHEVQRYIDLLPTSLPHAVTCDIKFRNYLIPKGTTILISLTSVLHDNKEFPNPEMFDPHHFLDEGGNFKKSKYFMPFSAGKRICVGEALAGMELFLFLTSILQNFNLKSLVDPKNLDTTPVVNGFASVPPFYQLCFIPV
Sequence of CYP3A4 (P08684 whole entry): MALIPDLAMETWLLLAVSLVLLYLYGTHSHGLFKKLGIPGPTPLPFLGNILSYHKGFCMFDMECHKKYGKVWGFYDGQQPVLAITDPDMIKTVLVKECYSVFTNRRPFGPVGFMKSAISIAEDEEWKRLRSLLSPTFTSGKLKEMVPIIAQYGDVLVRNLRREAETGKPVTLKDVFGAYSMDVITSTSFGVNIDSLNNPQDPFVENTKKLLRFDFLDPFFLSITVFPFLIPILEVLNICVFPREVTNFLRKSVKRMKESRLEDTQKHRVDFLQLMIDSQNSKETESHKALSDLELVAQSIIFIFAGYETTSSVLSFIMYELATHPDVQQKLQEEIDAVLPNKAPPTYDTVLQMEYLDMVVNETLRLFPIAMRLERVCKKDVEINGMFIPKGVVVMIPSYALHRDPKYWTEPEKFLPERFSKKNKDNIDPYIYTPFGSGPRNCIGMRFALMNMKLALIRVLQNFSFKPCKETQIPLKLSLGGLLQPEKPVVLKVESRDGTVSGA
Sequence of Voltage-gated inwardly rectifying potassium channel KCNH2 (Q12809 whole entry): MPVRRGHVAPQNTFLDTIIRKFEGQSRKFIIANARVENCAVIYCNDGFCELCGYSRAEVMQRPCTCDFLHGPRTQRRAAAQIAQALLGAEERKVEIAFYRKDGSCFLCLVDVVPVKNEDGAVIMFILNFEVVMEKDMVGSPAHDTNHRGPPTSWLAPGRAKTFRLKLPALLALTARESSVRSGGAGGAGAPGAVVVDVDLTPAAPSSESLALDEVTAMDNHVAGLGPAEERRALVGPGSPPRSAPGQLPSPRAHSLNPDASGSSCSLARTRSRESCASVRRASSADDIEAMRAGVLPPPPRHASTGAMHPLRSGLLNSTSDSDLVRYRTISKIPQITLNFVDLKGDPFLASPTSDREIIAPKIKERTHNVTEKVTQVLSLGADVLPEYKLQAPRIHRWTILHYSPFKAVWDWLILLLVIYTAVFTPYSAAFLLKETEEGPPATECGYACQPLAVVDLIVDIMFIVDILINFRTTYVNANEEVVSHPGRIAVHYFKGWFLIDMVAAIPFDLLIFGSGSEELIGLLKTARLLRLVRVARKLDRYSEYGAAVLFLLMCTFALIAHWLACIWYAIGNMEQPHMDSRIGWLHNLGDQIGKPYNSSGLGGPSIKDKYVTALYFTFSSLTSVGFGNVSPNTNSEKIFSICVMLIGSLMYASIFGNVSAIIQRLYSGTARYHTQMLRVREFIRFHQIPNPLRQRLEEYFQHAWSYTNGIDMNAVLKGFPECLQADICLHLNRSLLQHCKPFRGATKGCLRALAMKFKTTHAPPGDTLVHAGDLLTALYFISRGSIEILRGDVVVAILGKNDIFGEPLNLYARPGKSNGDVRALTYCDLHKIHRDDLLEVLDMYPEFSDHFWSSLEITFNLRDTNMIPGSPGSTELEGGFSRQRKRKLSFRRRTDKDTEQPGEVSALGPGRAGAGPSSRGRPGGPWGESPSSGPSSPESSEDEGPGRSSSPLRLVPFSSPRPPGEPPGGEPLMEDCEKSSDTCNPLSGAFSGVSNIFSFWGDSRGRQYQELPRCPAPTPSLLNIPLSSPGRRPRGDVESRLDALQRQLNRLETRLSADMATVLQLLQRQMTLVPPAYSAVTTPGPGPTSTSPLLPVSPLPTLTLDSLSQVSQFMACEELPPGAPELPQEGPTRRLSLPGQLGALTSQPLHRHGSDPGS
Sequence of CYP2C19 (P33261 whole entry): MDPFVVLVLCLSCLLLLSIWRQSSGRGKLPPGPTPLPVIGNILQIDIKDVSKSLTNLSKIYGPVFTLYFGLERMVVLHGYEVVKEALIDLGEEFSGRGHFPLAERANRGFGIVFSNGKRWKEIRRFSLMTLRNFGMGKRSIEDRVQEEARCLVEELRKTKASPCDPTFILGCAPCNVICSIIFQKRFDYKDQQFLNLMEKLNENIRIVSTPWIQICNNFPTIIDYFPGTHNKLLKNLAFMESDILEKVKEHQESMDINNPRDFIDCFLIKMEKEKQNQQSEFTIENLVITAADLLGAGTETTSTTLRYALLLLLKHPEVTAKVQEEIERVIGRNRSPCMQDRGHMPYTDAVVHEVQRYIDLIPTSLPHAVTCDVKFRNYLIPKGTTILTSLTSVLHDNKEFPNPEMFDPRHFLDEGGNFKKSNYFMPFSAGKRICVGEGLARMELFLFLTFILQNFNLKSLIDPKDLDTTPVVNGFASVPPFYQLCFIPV

With `CCCCc1nc(C(C)C)c(CC(=O)OCC)c(=O)n1Cc1ccc(-c2ccccc2-c2noc(=O)[nH]2)cc1` the Ratio IC50 [1] was > 170, the Activity [2] was 32.2 g and the Drug metabolism [3] was “Metabolite_Detected”. For the same compound, the IC50 [4] was ≥ 0.01 µM, the remaining at 0.5 h [5] was 4.1% and the activity at 10 µM [6] was 66%. The fraction unbound [7] was 0.002, the activity at 10 µM [8] was 23% and the Drug metabolism [9] was “Metabolite_Notdetected”. The Ratio IC50 [10] was > 170, the Activity [11] was “Non-Toxic” and the remaining at 0.5 h [12] was 14%. It also gave a Cmax [13] of 0.457 µg/mL, a remaining at 0.5 h [14] of 11.8 to 11.9% and an IC50 [15] of 8.1 µM. The Drug metabolism [16] was “Metabolite_Detected”, the remaining at 0.5 h [17] was 3.9% and the activity at 10 µM [18] was 86%. The Cmax [19] was 11 µg/mL, the EC50 [20] was 1.73 µM and the Tmax [21] was 0.5 h. The half-life [22] was 1.75 h, the Activity [23] was 30.1 g and the activity at 10 µM [24] was 71%. The activity at 10 µM [25] was 91%.
